Read-outs that look alike come from different tables or passages of the source.
Assays:
[1] = Preparation of liposome from mixed lipid (dispersion in water, high-pressure extrusion); type: physicochemical; details: mixed lipid compound/cholesterol/PEG-Glu2C18 dispersed in water, high-pressure extrusion 0.22 μm
Method: (§1) Compound 7, 8 or 9 (0.177 mmol), cholesterol (0.179 mmol) and PEG-Glu2C18 (1.0 μmol) were dissolved in benzene, and the mixture was freeze-dried to prepare a mixed lipid. 20 mg of this mixed lipid was dispersed in 1 mL of water for injection, and the resultant mixture was stirred for 6 hours. After that, liposome having a particle size of about 240 nm was prepared by means of the high-pressure extrusion method (final pore diameter: 0.22 μm).
as §1, with “Compound 3, 12” for “Compound 7, 8”, “or 13” for “or 9”, “(1.0 mmol)” for “(1.0 μmol)”

[2] = Concentration of Compound 3 in rat plasma after i.v. liposome (LC/MS/MS); type: in vivo, SD rat; details: male, Sprague-Dawley, iv, 40 mg/kg; for AUC / Cmax / half-life / concentration at 5 min / concentration at 1 h / concentration at 2 h / concentration at 6 h / concentration at 24 h: rat, plasma; for concentration at 5 min / concentration at 1 h / concentration at 2 h / concentration at 6 h / concentration at 24 h: SD rat, i.v. BSA-encapsulated pH-responsive liposome ([Lipid]=20 mg/mL, 2 ml/kg), read-out: GGLG concentration in plasma
Method: A pH-responsive liposome was prepared from mixed lipid (Compound (3)/cholesterol/PEG-Glu2C18=5/5/0.03 (mol)) using the high-pressure extrusion method. In the preparation, the particle size of the liposome was adjusted to 200 to 250 nm. Further, BSA was encapsulated in the internal aqueous phase. The prepared pH-responsive liposome ([Lipid]=20 mg/mL) was intravenously administered to a SD rat (male, body weight of 300 g or less) via the tail vein in an amount of 2 ml/kg under ether anesthesia. The number of rats used was N=3. Prior to the administration and 5 minutes, 1, 2, 6 and 24 hours after the administration, blood was collected (about 500 μL). The obtained blood was subjected to centrifugation (2,000×g, 20 minutes) to obtain plasma (liposome-suspended plasma), and this was preserved at −80° C. Further, after blood was collected 24 hours after the administration, the liver, spleen, lung and kidney were isolated, the wet weight thereof was measured, and these materials were preserved at −80° C. After that, homogenization was carried out using a saline in an amount 4 times greater than the wet weight of the organs.
A material in which the procedure is carried out until 100 μL of methanol is added to 10 μL of homogenate solution of plasma and the organs was used as a sample for measurement of specimen.
To the above-described sample for measurement, a solution to which an internal standard material (1,5-dihexadecyl N-glutamyl-L-glutamate (αGlu-Glu2C16)) was added (900 μL) was added, and the mixture was subjected to vortex stirring. After that, the mixture was allowed to stand at room temperature for at least 10 minutes. After that, the mixture was subjected to vortex stirring again and centrifuged at 4° C. at 10,000×g for 15 minutes. The obtained supernatant was transferred to an LC vial.
As a column, CAPLCELLPAK C18 MG (Shiseido Co., Ltd.) (3 μm, 2.0×50 mm) was used, and the column temperature was set at 40° C. Gradient elution was carried out using 0.1% acetic acid aqueous solution (A)-0.1% methanol acetate (B). The flow rate was 0.25 mL/min. The temperature of the autoinjector was set at 15° C. Regarding a needle washing solution, chloroform/methanol (1:1) was used for a washing pump, and methanol was used for a washing port.
The eluent that was separated by HPLC was subjected to positive ESI ionization and measured in the MRM mode.
An analyte for producing a calibration curve for measurement of plasma was measured, and a calibration curve of 1-300 μg/mL of plasma was prepared with weighting of 1/x^2 and Quadratic. The peak area of the analyte for measurement of plasma/IS peak area was substituted into the obtained formula of the calibration curve to calculate the concentration of Compound 3 in plasma. FIG. 8 is a graph showing the results. In FIG. 8, (-⋄-), (--[…]--) and (--Δ--) show the results of animal 1, animal 2 and animal 3, respectively.

[3] = Degree of fusion with anionic liposome (Example 9); details: liposome compound/cholesterol/PEG-Glu2C18, 37°C, 30 minutes
Method: In a manner similar to that in Example 2, the degree of fusion of the pH-responsive liposome with respect to the anionic liposome (DOPC/DPPG, 5/1 (molar ratio)) was calculated. The measurement method was as follows. 50 μL of 1 mM anionic liposome and 50 μL of 9 mM (converted to the mixed lipid basis) pH-responsive liposome were added to 1.9 mL of each of acetate buffers with different pHs and allowed to stand at 37° C. 30 minutes later, […] of the mixture was dividedly poured and added to 1.9 mL of HEPES buffer (pH 7.4). The resultant mixture was transferred to a quartz cell and subjected to fluorescence measurement (λex: 460 nm, 530 nm). The measurement was carried out using RF-5300PC manufactured by Shimadzu.

[4] = SD rat plasma, i.v. liposome ([Lipid]=20 mg/mL, 2 ml/kg), animal 1
[5] = SD rat plasma, i.v. liposome ([Lipid]=20 mg/mL, 2 ml/kg), Average
[6] = SD rat plasma, i.v. liposome ([Lipid]=20 mg/mL, 2 ml/kg), animal 2
[7] = SD rat plasma, i.v. liposome ([Lipid]=20 mg/mL, 2 ml/kg), animal 3

liposome formation with the compound as main component [1]: liposome was formed | Tmax [2, 4]: 4.98 min | AUC [2, 5]: 309 µg·h/mL | Cmax [2, 5]: 132000 ng/mL | half-life ([2]; SD rat plasma, i.v. liposome ([Lipid]=20 mg/mL, 2 ml/kg), Average, read-out: t½ (converted)): 4.84 h | AUC [2, 4]: 266 µg·h/mL | Cmax [2, 4]: 105000 ng/mL | half-life ([2]; SD rat plasma, i.v. liposome ([Lipid]=20 mg/mL, 2 ml/kg), animal 1, read-out: t½ (converted)): 5.03 h | AUC [2, 6]: 364 µg·h/mL | Cmax [2, 6]: 153000 ng/mL | half-life ([2]; SD rat plasma, i.v. liposome ([Lipid]=20 mg/mL, 2 ml/kg), animal 2, read-out: t½ (converted)): 4.31 h | AUC [2, 7]: 297 µg·h/mL | Cmax [2, 7]: 136000 ng/mL | half-life ([2]; SD rat plasma, i.v. liposome ([Lipid]=20 mg/mL, 2 ml/kg), animal 3, read-out: t½ (converted)): 5.18 h | concentration at 5 min ([2]; Average value (N=3)): 132000 ng/mL | concentration at 5 min ([2]; animal 1): 105000 ng/mL | concentration at 5 min ([2]; animal 2): 153000 ng/mL | concentration at 5 min ([2]; animal 3): 136000 ng/mL | concentration at 1 h ([2]; Average value (N=3)): 53600 ng/mL | concentration at 1 h ([2]; animal 1): 44700 ng/mL | concentration at 1 h ([2]; animal 2): 62400 ng/mL | concentration at 1 h ([2]; animal 3): 53500 ng/mL | concentration at 2 h ([2]; Average value (N=3)): 31200 ng/mL | concentration at 2 h ([2]; animal 1): 25800 ng/mL | concentration at 2 h ([2]; animal 2): 39300 ng/mL | concentration at 2 h ([2]; animal 3): 28500 ng/mL | concentration at 6 h ([2]; Average value (N=3)): 8900 ng/mL | concentration at 6 h ([2]; animal 1): 8390 ng/mL | concentration at 6 h ([2]; animal 2): 10200 ng/mL | concentration at 6 h ([2]; animal 3): 8120 ng/mL | concentration at 24 h ([2]; Average value (N=3)): 1130 ng/mL | concentration at 24 h ([2]; animal 1): 1020 ng/mL | concentration at 24 h ([2]; animal 2): 1200 ng/mL | concentration at 24 h ([2]; animal 3): 1170 ng/mL | half-life ([2]; from concentration in rat plasma, i.v. pH-responsive liposome, read-out: half-life of Compound 3 (converted)): 4.8 h
Structure (SMILES): CCCCCCCCCCCCCCCCOC(=O)CCC(NC(=O)C(CCCCNC(=O)C(N)CCC(=O)O)NC(=O)C(N)CCC(=O)O)C(=O)OCCCCCCCCCCCCCCCC (stereo not shown) [Compound 3]
degree of fusion ([3]; pH 5.5 (maximum)): about 60% | degree of fusion ([3]; pH 7.4): about 15%

— patent US8241647B2, “Amphiphilic molecule, molecular assembly comprising the amphiphilic molecule, and use of the molecular assembly” (Waseda University, priority 2007, dated 2012)
